Target: DCN1 (Homo sapiens (Human), UniProt Q96GG9)
Experiment: TR-FRET binding assay (biotin-DCN1 / Ac-UBE2M12-AlexaFluor488)
Conditions: mean ± SD (n); read-out: DCN1_TRFRET Mean EC50
Experimental: • IC50 values were generated using our TR-FRET binding assay and are represented as the mean of three replicates with errors reported as the standard deviation.
The assay cocktail was then incubated for 1 h at room temperature and distributed using a WellMate instrument (Matrix). Compounds to be screened were added to assay plates from DMSO stock solutions by pin transfer using 50SS pins (V&P Scientific). […] All compounds were tested in triplicate or more.

DCN1, sequence (Q96GG9 whole entry): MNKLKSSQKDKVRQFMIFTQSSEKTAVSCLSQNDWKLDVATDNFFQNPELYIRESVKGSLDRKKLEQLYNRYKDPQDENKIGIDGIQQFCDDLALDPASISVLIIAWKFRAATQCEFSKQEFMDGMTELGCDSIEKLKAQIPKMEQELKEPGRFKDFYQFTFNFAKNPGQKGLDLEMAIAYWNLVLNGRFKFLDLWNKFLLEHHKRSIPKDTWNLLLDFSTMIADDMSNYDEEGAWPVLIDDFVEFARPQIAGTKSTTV

Compound	EC50 [nM]
CCN1C(=O)[C@@H](NC(=O)c2cccc(C(F)(F)F)c2)[C@@H](c2cc(C)cs2)c2c(C)nn(-c3ccccc3)c21 [RG-0013987, N-[(4S,5S)-7-ethyl-3-methyl-4-(4-methylthiophen-2-yl)-6-oxo-1-phenyl-1H,4H,5H,6H,7H-pyrazolo[3,4-b]pyridin-5-yl]-3-(trifluoromethyl)benzamide]	3100 ± 559
Cc1cccc(C(=O)N[C@@H]2C(=O)N(CC(F)(F)F)c3c(c(C)nn3-c3ccccc3)[C@@H]2c2ccc(F)cc2)c1 [RG-0009509, N-[(4S,5S)-4-(4-fluorophenyl)-3-methyl-6-oxo-1-phenyl-7-(2,2,2-trifluoroethyl)-1H,4H,5H,6H,7H-pyrazolo[3,4-b]pyridin-5-yl]-3-methylbenzamide]	7000 ± 1710
Cc1nn(-c2ccccc2)c2c1[C@H](c1ccc(F)cc1)[C@H](NC(=O)c1cccc(C(F)(F)F)c1)C(=O)N2CCNC(=O)OC(C)(C)C [RG-0014162, tert-butyl N-{2-[(4S,5S)-4-(4-fluorophenyl)-3-methyl-6-oxo-1-phenyl-5-[3-(trifluoromethyl)benzamido]-1H,4H,5H,6H,7H-pyrazolo[3,4-b]pyridin-7-yl]ethyl}carbamate]	> 13600
C#CCOCc1nn(-c2ccccc2)c2c1[C@H](c1ccc(F)cc1)[C@H](NC(=O)c1cccc(C)c1)C(=O)N2CC [RG-0013055, N-[(4S,5S)-7-ethyl-4-(4-fluorophenyl)-6-oxo-1-phenyl-3-[(prop-2-yn-1-yloxy)methyl]-1H,4H,5H,6H,7H-pyrazolo[3,4-b]pyridin-5-yl]-3-methylbenzamide]	168 ± 8.1
CCN1C[C@@H](NC(=O)c2cccc(C)c2)[C@@H](c2ccc(F)cc2)c2c(C)nn(-c3ccccc3)c21 [RG-0009507, N-[(4S,5S)-7-ethyl-4-(4-fluorophenyl)-3-methyl-1-phenyl-1H,4H,5H,6H,7H-pyrazolo[3,4-b]pyridin-5-yl]-3-methylbenzamide]	> 36500
COCN1C(=O)[C@@H](NC(=O)c2cccc(C)c2)[C@@H](c2ccc(F)cc2)c2c(C)nn(-c3ccccc3)c21 [RG-0008859, N-[(4S,5S)-4-(4-fluorophenyl)-7-(methoxymethyl)-3-methyl-6-oxo-1-phenyl-1H,4H,5H,6H,7H-pyrazolo[3,4-b]pyridin-5-yl]-3-methylbenzamide]	491 ± 25.5
CCN1C(=O)[C@@H](NC(=O)c2cccc(C(F)(F)F)c2)[C@@H](c2ccc(F)cc2)c2c(CNCCNC(=O)OC(C)(C)C)nn(-c3ccccc3)c21 [RG-0014142, tert-butyl N-[2-({[(4S,5S)-7-ethyl-4-(4-fluorophenyl)-6-oxo-1-phenyl-5-[3-(trifluoromethyl)benzamido]-1H,4H,5H,6H,7H-pyrazolo[3,4-b]pyridin-3-yl]methyl}amino)ethyl]carbamate]	116 ± 17.5
CCN1C(=O)[C@@H](NC(=O)c2cccc(I)c2)[C@@H](c2ccc(F)cc2)c2c(C)nn(-c3ccccc3)c21 [RG-0013060, N-[(4S,5S)-7-ethyl-4-(4-fluorophenyl)-3-methyl-6-oxo-1-phenyl-1H,4H,5H,6H,7H-pyrazolo[3,4-b]pyridin-5-yl]-3-iodobenzamide]	461 ± 29.4
Cc1nn(-c2ccccc2)c2c1[C@H](c1ccc(F)cc1)[C@H](NC(=O)c1cccc(C(F)(F)F)c1)C(=O)N2CO [RG-0013981, N-[(4S,5S)-4-(4-fluorophenyl)-7-(hydroxymethyl)-3-methyl-6-oxo-1-phenyl-1H,4H,5H,6H,7H-pyrazolo[3,4-b]pyridin-5-yl]-3-(trifluoromethyl)benzamide]	> 36500
CCC(C)n1nc(C)c2c1N(CC)C(=O)[C@@H](NC(=O)c1cccc(C)c1)[C@H]2c1ccc(F)cc1 (stereo partly drawn) [RG-0008861, N-[(4S,5S)-1-(butan-2-yl)-7-ethyl-4-(4-fluorophenyl)-3-methyl-6-oxo-1H,4H,5H,6H,7H-pyrazolo[3,4-b]pyridin-5-yl]-3-methylbenzamide]	827 ± 371

— patent US12409171B2, “Pharmaceutically active pyrazolo-pyridone modulators of DCN1/2-mediated cullin neddylation” (UNIVERSITY OF KENTUCKY RESEARCH FOUNDATION, priority 2019, dated 2025)
